ChEMBL document CHEMBL1152667, “Synthesis and radiopharmacological investigation of 3-[4'-[(18)F]fluorobenzylidene]indolin-2-one as possible tyrosine kinase inhibitor” (Bioorg Med Chem, 2009)

Tests used:
Liver [1] = assay: Biodistribution in Wistar rat liver at 1.7 MBq, iv administered as single dose measured after 1 min post-injection by gamma counting; format: ADME, organism-based; conditions: in vivo
Thymus [2] = assay: Biodistribution in Wistar rat thymus at 1.7 MBq, iv administered as single dose measured after 30 mins post-injection by gamma counting; format: ADME, organism-based; conditions: in vivo, 0.5 h
Femur [3] = assay: Biodistribution in Wistar rat femur assessed as standard uptake value at 1.7 MBq, iv administered as single dose measured after 10 mins post-injection by gamma counting; format: ADME, organism-based; conditions: in vivo
[4] = Biodistribution in Wistar rat thyroid gland assessed as standard uptake value at 1.7 MBq, iv administered as single dose measured after 30 mins post-injection by gamma counting; format: ADME, organism-based; conditions: in vivo, 0.5 h
Spleen = assay: Biodistribution in Wistar rat spleen assessed as standard uptake value at 1.7 MBq, iv administered as single dose measured after 60 mins post-injection by gamma counting; format: ADME, organism-based; conditions: in vivo, 1 h
[5] = Biodistribution in Wistar rat brown adipose tissue assessed as standard uptake value at 1.7 MBq, iv administered as single dose measured after 5 mins post-injection by gamma counting; format: ADME, organism-based; conditions: in vivo
Liver [6] = assay: Biodistribution in Wistar rat liver at 1.7 MBq, iv administered as single dose measured after 30 mins post-injection by gamma counting; format: ADME, organism-based; conditions: in vivo, 0.5 h
Muscle tissue [7] = assay: Biodistribution in Wistar rat muscle assessed as standard uptake value at 1.7 MBq, iv administered as single dose measured after 10 mins post-injection by gamma counting; format: ADME, organism-based; conditions: in vivo
[8] = Biodistribution in Wistar rat thyroid gland assessed as standard uptake value at 1.7 MBq, iv administered as single dose measured after 10 mins post-injection by gamma counting; format: ADME, organism-based; conditions: in vivo
[9] = Biodistribution in Wistar rat adipose tissue assessed as standard uptake value at 1.7 MBq, iv administered as single dose measured after 30 mins post-injection by gamma counting; format: ADME, organism-based; conditions: in vivo, 0.5 h
[10] = Metabolic stability in Wistar rat blood assessed as compound remaining at 0.5 MBq after 60 mins by radio-HPLC analysis; format: ADME, tissue-based; conditions: read-out: Stability
[11] = Biodistribution in Wistar rat thyroid gland assessed as standard uptake value at 1.7 MBq, iv administered as single dose measured after 5 mins post-injection by gamma counting; format: ADME, organism-based; conditions: in vivo
Brain [12] = assay: Biodistribution in Wistar rat brain at 1.7 MBq, iv administered as single dose measured after 30 mins post-injection by gamma counting; format: ADME, organism-based; conditions: in vivo, 0.5 h
Muscle tissue [13] = assay: Biodistribution in Wistar rat muscle assessed as standard uptake value at 1.7 MBq, iv administered as single dose measured after 60 mins post-injection by gamma counting; format: ADME, organism-based; conditions: in vivo, 1 h
Brain [14] = assay: Biodistribution in Wistar rat brain at 1.7 MBq, iv administered as single dose measured after 10 mins post-injection by gamma counting; format: ADME, organism-based; conditions: in vivo
Adrenal gland [15] = assay: Biodistribution in Wistar rat adrenal gland assessed as standard uptake value at 1.7 MBq, iv administered as single dose measured after 1 min post-injection by gamma counting; format: ADME, organism-based; conditions: in vivo
Heart = assay: Biodistribution in Wistar rat heart assessed as standard uptake value at 1.7 MBq, iv administered as single dose measured after 60 mins post-injection by gamma counting; format: ADME, organism-based; conditions: in vivo, 1 h
Femur [16] = assay: Biodistribution in Wistar rat femur assessed as standard uptake value at 1.7 MBq, iv administered as single dose measured after 60 mins post-injection by gamma counting; format: ADME, organism-based; conditions: in vivo, 1 h
[17] = Octanol-phosphate buffer distribution coefficient, log D at pH 7.4 by shake-flask method; format: physicochemical
Harderian gland = assay: Biodistribution in Wistar rat harderian gland assessed as standard uptake value at 1.7 MBq, iv administered as single dose measured after 30 mins post-injection by gamma counting; format: ADME, organism-based; conditions: in vivo, 0.5 h
Thymus [18] = assay: Biodistribution in Wistar rat thymus at 1.7 MBq, iv administered as single dose measured after 5 mins post-injection by gamma counting; format: ADME, organism-based; conditions: in vivo
[19] = Biodistribution in Wistar rat adipose tissue assessed as standard uptake value at 1.7 MBq, iv administered as single dose measured after 1 min post-injection by gamma counting; format: ADME, organism-based; conditions: in vivo
[20] = Biodistribution in Wistar rat urine at 1.7 MBq, iv administered as single dose measured after 10 mins post-injection by gamma counting; format: ADME, organism-based; conditions: in vivo
Liver [21] = assay: Biodistribution in Wistar rat liver at 1.7 MBq, iv administered as single dose measured after 10 mins post-injection by gamma counting; format: ADME, organism-based; conditions: in vivo
Testes = assay: Biodistribution in Wistar rat testes at 1.7 MBq, iv administered as single dose measured after 1 min post-injection by gamma counting; format: ADME, organism-based, Testis; conditions: in vivo
Liver [22] = assay: Biodistribution in Wistar rat liver assessed as standard uptake value at 1.7 MBq, iv administered as single dose measured after 10 mins post-injection by gamma counting; format: ADME, organism-based; conditions: in vivo
Pancreas [23] = assay: Biodistribution in Wistar rat pancreas assessed as standard uptake value at 1.7 MBq, iv administered as single dose measured after 30 mins post-injection by gamma counting; format: ADME, organism-based; conditions: in vivo, 0.5 h
Thymus [24] = assay: Biodistribution in Wistar rat thymus at 1.7 MBq, iv administered as single dose measured after 10 mins post-injection by gamma counting; format: ADME, organism-based; conditions: in vivo
Brain [25] = assay: Biodistribution in Wistar rat brain at 1.7 MBq, iv administered as single dose measured after 1 min post-injection by gamma counting; format: ADME, organism-based; conditions: in vivo
Kidney = assay: Biodistribution in Wistar rat kidney assessed as standard uptake value at 1.7 MBq, iv administered as single dose measured after 1 min post-injection by gamma counting; format: ADME, organism-based; conditions: in vivo
[26] = Metabolic stability in Wistar rat blood assessed as compound remaining at 30 MBq, iv after 3 mins by radio-HPLC analysis; format: ADME, organism-based; conditions: read-out: Stability
Mus musculus = assay: Metabolic stability in mouse at 11 MBq, iv after 45 mins by radio-HPLC analysis; format: ADME, organism-based; conditions: in vivo, 0.75 h
Pancreas [27] = assay: Biodistribution in Wistar rat pancreas at 1.7 MBq, iv administered as single dose measured after 60 mins post-injection by gamma counting; format: ADME, organism-based; conditions: in vivo, 1 h
[28] = Ratio of drug level in harderian gland to blood in Wistar rat at 1.7 MBq, iv administered as single dose measured after 5 mins post-injection; format: ADME, organism-based
[29] = Metabolic stability in Wistar rat blood assessed as compound remaining at 30 MBq, iv after 5 mins by radio-HPLC analysis; format: ADME, organism-based; conditions: read-out: Stability
Femur [30] = assay: Biodistribution in Wistar rat femur at 1.7 MBq, iv administered as single dose measured after 1 min post-injection by gamma counting; format: ADME, organism-based; conditions: in vivo
Pancreas [31] = assay: Biodistribution in Wistar rat pancreas assessed as standard uptake value at 1.7 MBq, iv administered as single dose measured after 5 mins post-injection by gamma counting; format: ADME, organism-based; conditions: in vivo
[32] = Ratio of drug level in adrenal gland to blood in Wistar rat at 1.7 MBq, iv administered as single dose measured after 60 mins post-injection; format: ADME, organism-based
[33] = Biodistribution in Wistar rat brown adipose tissue assessed as standard uptake value at 1.7 MBq, iv administered as single dose measured after 60 mins post-injection by gamma counting; format: ADME, organism-based; conditions: in vivo, 1 h
[34] = Phase 1 elimination half life in Wistar rat at 30 MBq, iv by radio-HPLC analysis; format: ADME, organism-based; conditions: in vivo, read-out: beta t1/2 (converted)
Lung = assay: Biodistribution in Wistar rat lung assessed as standard uptake value at 1.7 MBq, iv administered as single dose measured after 1 min post-injection by gamma counting; format: ADME, organism-based; conditions: in vivo
Adrenal gland [35] = assay: Biodistribution in Wistar rat adrenal gland assessed as standard uptake value at 1.7 MBq, iv administered as single dose measured after 30 mins post-injection by gamma counting; format: ADME, organism-based; conditions: in vivo, 0.5 h

Drug uptake (Liver [1]): 17.16 %ID | Drug uptake (Thymus [2]): 0.08 %ID | SUV (Femur [3]): 0.51% | SUV [4]: 0.4% | SUV (Spleen): 0.13% | SUV [5]: 2.29% | Drug uptake (Liver [6]): 8.95 %ID | SUV (Muscle tissue [7]): 0.69% | SUV [8]: 0.75% | SUV [9]: 1.17% | remaining at 1 h, 0.5 MBq [10]: 84% | SUV [11]: 0.99% | Drug uptake (Brain [12]): 0.44 %ID | SUV (Muscle tissue [13]): 0.19% | Drug uptake (Brain [14]): 1.09 %ID | SUV (Adrenal gland [15]): 4.95% | SUV (Heart): 0.2% | SUV (Femur [16]): 0.19% | logD [17]: 3.39 | SUV (Harderian gland): 1.07% | Drug uptake (Thymus [18]): 0.34 %ID | SUV [19]: 0.7% | Drug uptake [20]: 6.98 %ID | Drug uptake (Liver [21]): 17.84 %ID | Drug uptake (Testes): 0 %ID | SUV (Liver [22]): 3.03% | SUV (Pancreas [23]): 0.55% | Drug uptake (Thymus [24]): 0.23 %ID | Drug uptake (Brain [25]): 3.09 %ID | SUV (Kidney): 3.36% | remaining at 0.05 h [26]: 54% | Stability (Mus musculus): Unstable | Drug uptake (Pancreas [27]): 0.07 %ID | Kp at 5 min [28]: 4.4 | remaining at 5 min [29]: 40% | Drug uptake (Femur [30]): 0.44 %ID | SUV (Pancreas [31]): 1.66% | Kp at 1 h [32]: 8.9 | SUV [33]: 0.63% | half-life [34]: 8 s | SUV (Lung): 4.26% | SUV (Adrenal gland [35]): 1.39%
Compound: O=C1Nc2ccccc2/C1=C/c1ccc([18F])cc1
